Measurements taken from ChEMBL document CHEMBL5252629, “The protein disulfide isomerase inhibitor 3-methyltoxoflavin inhibits Chikungunya virus” (Bioorg Med Chem, 2023).
Values after ≈ are worked out from the molar mass of the structure shown.

Key:
[1] = test system: Chikungunya virus; assay: Antiviral activity against CHIKV infected in hamster BHK-21 cells assessed as inhibition of viral replication at 20 uM measured after 48 hrs by renilla luciferase assay relative to control; type: functional; set-up: scale not given: the % may be the effect or the level left
[2] = test system: Chikungunya virus; assay: Antiviral activity against CHIKV infected in human foreskin fibroblast cells; type: functional, organism-based
[3] = test system: Chikungunya virus; assay: Antiviral activity against CHIKV infected in […] Huh-7 cells; type: functional, organism-based
[4] = Kinetic solubility of the compound in FaSSGF at pH 1.2 by LCMS analysis; type: ADME; details: read-out: Kinetic_solubility
[5] = test system: Huh-7; assay: Cytotoxicity against human Huh-7 cells assessed as reduction in cell viability incubated for 48 hrs by MTT assay; type: functional
[6] = test system: Yellow fever virus; assay: Antiviral activity against Yellow fever virus 17D infected in Huh-7 cells assessed as reduction in cytopathic effect; type: functional, organism-based
[7] = test system: Vero 76; assay: Cytotoxicity against African green monkey Vero 76 cells assessed as reduction in cell viability incubated for 48 hrs by MTT assay; type: toxicity, cell-based; details: chlorocebus sabaeus, vero 76, 48 h
[8] = Apparent permeability of the compound across basolateral side to apical side in human Caco-2 cells assessed as drug recovery; type: ADME, cell-based
[9] = Apparent permeability of the compound across apical side to basolateral side in human Caco-2 cells assessed as drug recovery; type: ADME, cell-based
[10] = test system: HepG2; assay: Cytotoxicity against human HepG2 cells assessed as reduction in cell viability measured after 48 hrs by MTT assay; type: functional
[11] = Apparent permeability of the compound across apical side to basolateral side in human Caco-2 cells; type: ADME, cell-based
[12] = Selectivity index, ratio of CC50 for human Huh-7 cells to EC50 for CHIKV S27 infected in Huh-7 cells assessed as reduction in cytopathic effect by neutral red staining based analysis; type: toxicity, cell-based; details: read-out: Ratio CC50/EC50
[13] = test system: Yellow fever virus; assay: Antiviral activity against Yellow fever virus 17D infected in Huh-7 cells assessed as reduction in cytopathic effect by neutral red staining based analysis; type: functional, organism-based
[14] = Metabolic stability in human liver microsomes assessed as hepatic clearance preincubated for 5 mins followed by NADPH addition and measured after 20 mins by LCMS analysis; type: ADME, Microsome; details: time 25 min
[15] = test system: Chikungunya virus; assay: Antiviral activity against CHIKV infected in hamster BHK-21 cells assessed as inhibition of viral replication measured after 48 hrs by gaussia luciferase assay; type: functional, organism-based; details: BHK-21, 48 h
[16] = Inhibition of N-terminal His-tagged human PDI expressed in Escherichia coli BL21 (DE3) incubated for 1 hr
[17] = Selectivity index, ratio of CC50 for human Huh-7 cells to EC50 for Yellow fever virus 17D; type: toxicity; details: read-out: Ratio CC50/EC50
[18] = Selectivity index, ratio of CC50 for hamster BHK-21 cells to EC50 for CHIKV infected in hamster BHK-21 cells; type: toxicity, cell-based; details: read-out: Ratio CC50/EC50
[19] = Kinetic solubility of the compound in FaSSIF at pH 6.8 by LCMS analysis; type: ADME; details: read-out: Kinetic_solubility
[20] = Selectivity index, ratio of CC50 for human Huh-7 cells to EC50 for Yellow fever virus 17D assessed as reduction in cytopathic effect by neutral red staining based analysis; type: toxicity; details: read-out: Ratio CC50/EC50
[21] = test system: Chikungunya virus; assay: Antiviral activity against CHIKV S27 infected in Huh-7 cells assessed as reduction in cytopathic effect; type: functional, organism-based; details: S27, Huh-7
[22] = Metabolic stability in mouse liver microsomes assessed as intrinsic clearance at 100 uM preincubated for 5 mins followed by NADPH addition and measured upto 60 mins by LCMS analysis; type: ADME, Microsome; details: time < 65 min, read-out: CLH
[23] = Selectivity index, ratio of CC50 for human Huh-7 cells to EC50 for CHIKV S27 infected in Huh-7 cells; type: toxicity, cell-based; details: read-out: Ratio CC50/EC50
[24] = test system: Huh-7; assay: Cytotoxicity against human Huh-7 cells assessed as reduction in cell viability measured after 48 hrs by MTT assay; type: functional
[25] = test system: Chikungunya virus; assay: Antiviral activity against CHIKV S27 infected in Huh-7 cells assessed as reduction in cytopathic effect by neutral red staining based analysis; type: functional, organism-based; details: S27, Huh-7
[26] = test system: Chikungunya virus; assay: Antiviral activity against CHIKV S27 infected in Vero 76 cells assessed as reduction in cytopathic effect; type: functional; details: S27, Vero 76
[27] = Kinetic solubility of the compound in buffer at pH 7.4 by LCMS analysis; type: physicochemical; details: read-out: Kinetic_solubility
[28] = test system: Chikungunya virus; assay: Antiviral activity against CHIKV S27 infected in Vero 76 cells assessed as reduction in cytopathic effect by neutral red staining based analysis; type: functional, organism-based; details: S27, Vero 76
[29] = test system: BHK-21; assay: (§1) Cytotoxicity against hamster BHK-21 cells assessed as reduction in cell viability measured after 48 hrs by MTT assay; type: toxicity, cell-based, Mesocricetus auratus; details: bhk-21, 48 h
[30] = test system: Huh-7; assay: Cytotoxicity against human Huh-7 cells infected with yellow fever virus assessed as reduction in cell viability incubated for 48 hrs by MTT assay; type: functional
[31] = test system: Chikungunya virus; assay: Antiviral activity against CHIKV infected in African green monkey Vero cells; type: functional, organism-based
[32] = test system: Chikungunya virus; assay: Antiviral activity against CHIKV infected in hamster BHK-21 cells; type: functional, organism-based
[33] = test system: Chikungunya virus; assay: Antiviral activity against CHIKV-ZsGreen infected in African green monkey Vero incubated for 24 hrs by flow cytometry analysis; type: functional, organism-based
[34] = as §1; type: toxicity, cell-based, Mesocricetus auratus; details: BHK-21 cells

With `C[C@@H]1C[C@H]2[C@@H]3CCC4=CC(=O)C=C[C@]4(C)[C@@]3(F)[C@@H](O)C[C@]2(C)[C@@]1(O)C(=O)CO` [DEXAMETHASONE] the Activity [1] was 70.9%.
For `CN1[C@@H]2CC[C@H]1C[C@@H](OC(=O)C(CO)c1ccccc1)C2` (stereo partly drawn) [ATROPINE], the Activity [1] was 149.2%.
With `O=C(O)c1nc(=O)[nH]c2ccccc12` the IC50 [2] was 23 µM.
For `NC(=O)C1(N2CCCCC2)CCN(CCCC(=O)c2ccc(F)cc2)CC1` [PIPAMPERONE], the Activity [1] was 102.9%.
Compound `O=C(C1CC1)N1CCN(Cn2sc3ccccc3c2=O)CC1` has an Activity [1] of 14%.
With `OCCN1CCN(CCCN2c3ccccc3Sc3ccc(C(F)(F)F)cc32)CC1` [FLUPHENAZINE] the Activity [1] was 11.6%.
Compound `O=C(CCCN1CCC(O)(c2ccc(Cl)cc2)CC1)c1ccc(F)cc1` [HALOPERIDOL] has an Activity [1] of 40.5%.
`CCCCCc1c2c(cc(O)c1C(=O)O)OC(=O)c1c(cc(OC)cc1C(=O)CCCC)O2` [LOBARIC ACID] showed an EC50 [3] of 5.3 µM.
With `O=P(O)(O)C(O)(Cc1cccnc1)P(=O)(O)O` [RISEDRONIC ACID] the Activity [1] was 86.7%.
Work on `Cc1cc([N+](=O)[O-])ccc1-c1ccc(C2N=C(O)c3c(sc4c3CCN(C)C4)N2)o1` (stereo not drawn) yielded an Activity [1] of 100%.
In the case of `Cc1nc2c(=O)n(C)c(=O)nc-2n(C)n1`, the solubility kinetic [4] is reported as 424 µM (≈ 87.7 µg/mL), the CC50 [5] is reported as 1.1 µM and the EC50 [6] is reported as 0.37 µM. It also gave a CC50 [7] of 1.7 µM, a Drug recovery [8] of 93.5% and a Drug recovery [9] of 103%. For the same compound, the CC50 [10] was 11 µM, the Papp [11] was 17.8 10^-6 cm/s and the Activity [1] was 2%. It also gave a selectivity ratio [12] greater than 11, an EC50 [13] of 0.42 µM and a CLhep predicted [14] of less than 6.1 mL/min/kg. The EC50 [15] was 0.2 µM, the IC50 [16] was 0.17 µM and the selectivity ratio [17] was 3.2. The selectivity ratio [18] was 30.8, the solubility kinetic [19] was 228 µM (≈ 47.1 µg/mL) and the selectivity ratio [20] was 2.9. For the same compound, the EC50 [21] was 0.19 µM, the microsomal CLint at 100 µM [22] was 7.4 µL/min/mg and the selectivity ratio [23] was 17. It also gave a CC50 [24] of 3.2 µM, an EC50 [25] of less than 0.1 µM and an EC90 [26] greater than 1.7 µM. The solubility kinetic [27] was 400 µM (≈ 82.8 µg/mL), the EC50 [28] was greater than 1.7 µM and the CC50 [29] was 6.2 µM. The CC50 [30] was 1.2 µM.
For `C=CCc1ccc(O)c(OC)c1` [EUGENOL], the Activity [1] was 100%.
Compound `CN(C)CCCN1c2ccccc2Sc2ccccc21` [PROMAZINE] has an Activity [1] of 18%.
With `CC(C)n1ncc2c1N=C(O)CC2c1ccc(-c2ccc(C(=O)O)cc2)o1` (stereo not drawn) the Activity [1] was 100%.
With `COc1c(O)cc2c(c1O)[C@@H]1O[C@H](CO)[C@@H](O)[C@H](O)[C@H]1OC2=O` [BERGENIN] the Activity [1] was 100%.
In the case of `CCN(CC)CCOc1ccc2c(c1)C(=O)c1cc(OCCN(CC)CC)ccc1-2` [TILORONE], the Activity [1] is reported as 100% and the EC50 [31] is reported as 4.2 µM.
`CCC(C)n1ncn(-c2ccc(N3CCN(c4ccc(OCC5COC(Cn6cncn6)(c6ccc(Cl)cc6Cl)O5)cc4)CC3)cc2)c1=O` (stereo not drawn) [ITRACONAZOLE] showed an EC50 [32] of 0.32 µM.
With `CCN(CC)Cc1cc(Nc2ccnc3cc(Cl)ccc23)ccc1O` [AMODIAQUINE] the Activity [1] was 19%.
`COc1ccc(C(=O)/C=C/c2ccc(O)cc2)c(O)c1CC=C(C)C` showed an Activity [1] of 13.5%.
In the case of `O=C1OC(CN2CCOCC2)CN1/N=C/c1ccc([N+](=O)[O-])o1` (stereo not drawn) [FURALTADONE], the Activity [1] is reported as 20.4%.
Work on `O=C1Cc2cc(CCN3CCN(c4nsc5ccccc45)CC3)c(Cl)cc2N1` [ZIPRASIDONE] yielded an Activity [1] of 101%.
`Cc1nc(C)c(CN2CCCC(C(=O)Nc3cccc(-n4cnnn4)c3)C2)nc1C` (stereo not drawn) showed an Activity [1] of 100%.
In the case of `c1ccc2c(c1)Nc1ccccc1S2` [PHENOTHIAZINE], the Activity [1] is reported as 73.7%.
`Cn1c(=O)[nH]c2ccc(S(=O)(=O)NCCCOC34CC5CC(CC(C5)C3)C4)cc2c1=O` showed an Activity [1] of 100%.
In the case of `OCc1ccccc1O[C@@H]1O[C@H](CO)[C@@H](O)[C@H](O)[C@H]1O` [SALICIN], the Activity [1] is reported as 100%.
`C=CCc1ccc(OC)cc1` [ESTRAGOLE] showed an Activity [1] of 100%.
In the case of `OC(CNC1CCN(Cc2ccccc2)CC1)COc1ccccc1` (stereo not drawn), the EC50 [33] is reported as 1.6 µM.
Work on `CCCCCCCCCCC[C@@H](C[C@@H]1OC(=O)[C@H]1CCCCCC)OC(=O)[C@H](CC(C)C)NC=O` [ORLISTAT] yielded an Activity [1] of 48.7%.
In the case of `CCCCN(CCCC)CC(O)c1cc(Cl)cc2c1-c1ccc(Cl)cc1/C2=C/c1ccc(Cl)cc1` (stereo not drawn) [LUMEFANTRINE], the Activity [1] is reported as 100%.
For `Cc1cc(C)nc(NS(=O)(=O)c2ccc(NC(=O)CN3C(=O)C4CC=CCC4C3=O)cc2)n1` (stereo not drawn), the Activity [1] was 100%.
Compound `CCN(CC)CCCC(C)Nc1c2ccc(Cl)cc2nc2ccc(OC)cc12` (stereo not drawn) [QUINACRINE] has an Activity [1] of 12.5%, an EC50 [15] of 12 µM and a selectivity ratio [18] of 1.6. The CC50 at 48 h [34] was 19.8 µM.
`O=C(O)c1ccc(S(=O)(=O)Nc2ccc(S(=O)(=O)Nc3ccccn3)cc2)cc1` gave an Activity [1] of 100%.
In the case of `CC(=O)c1ccc(S(=O)(=O)NC(=O)NC2CCCCC2)cc1` [ACETOHEXAMIDE], the Activity [1] is reported as 100%.
`C=CCN1CC[C@]23c4c5ccc(O)c4O[C@H]2C(=O)CC[C@@]3(O)[C@H]1C5` [NALOXONE] showed an Activity [1] of 121.5%.
Work on `Clc1ccc2c(N3CCN(CCCN4CCN(c5ccnc6cc(Cl)ccc56)CC4)CC3)ccnc2c1` [PIPERAQUINE] yielded an Activity [1] of 138.1%.
For `CC(C)=CCC/C(C)=C/Cc1c(O)ccc(C(=O)/C=C/c2ccc(O)cc2)c1O` [XANTHOANGELOL], the Activity [1] was 8.4%, the EC50 [15] was 7.1 µM and the selectivity ratio [18] was 1.7. The CC50 at 48 h [34] was 11.8 µM.
Compound `NC(=O)C1CCN(c2nc3c(c(=O)[nH]2)C(C(=O)Nc2ccccc2Cl)CC(=O)N3)CC1` (stereo not drawn) has an Activity [1] of 140%.
For `Cc1nnc(C(=O)NC(C)(C)c2nc(C(=O)NCc3ccc(F)cc3)c(O)c(=O)n2C)o1` [RALTEGRAVIR], the Activity [1] was 58.9%.
With `O=C1CC(c2ccc(S(=O)(=O)Nc3ccccc3C(=O)Nc3ccc(F)cc3)cc2)CN1` (stereo not drawn) the Activity [1] was 100%.
